ChEMBL document CHEMBL1152616, “The biological activity and metabolic stability of peptidic bifunctional compounds that are opioid receptor agonists and neurokinin-1 receptor antagonists with a cystine moiety” (Bioorg Med Chem, 2009)
Activity calls are given as the source filed them. The calls are words filed in the database; no cut-off is given here. Positions of bridges follow the written chain, without caps; N, C: chain ends. Non-standard residues stand in square brackets, D forms with d. Residues, ends and D or L forms follow the SMILES beside them. *: point of attachment. NH(3,5-(CF3)2-benzyl) = FC(F)(F)c1cc(CN*)cc(C(F)(F)F)c1; Nle = CCCC[C@H](N)C(=O)O

Columns and labels:
[1] = target: T1, Delta-type opioid receptor (Homo sapiens, UniProt P41143); assay: Displacement of [3H]DPDPE from human delta opioid receptor expressed in HN9.10 cells; assay type: cell-based
Mu-type opioid receptor [2] = target: T2, Mu-type opioid receptor (Rattus norvegicus, UniProt P33535); assay: Displacement of [3H]DAMGO from rat mu opioid receptor expressed in HN9.10 cells; assay type: cell-based
Substance-P receptor [3] = target: Substance-P receptor (Homo sapiens, UniProt P25103); assay: Displacement of [3H]substance P from human NK1 receptor expressed in CHO cell membranes
Substance-P receptor [4] = target: Substance-P receptor (Rattus norvegicus, UniProt P14600); assay: Displacement of [3H]substance P from rat NK1 receptor expressed in CHO cell membranes; design: species or system Membrane
[5] = target: T1, Delta-type opioid receptor; assay: Agonist activity at human delta opioid receptor expressed in HN9.10 cells assessed as stimulation of [35S]GTPgammaS binding; assay type: functional, cell-based
[6] = target: T1, Delta-type opioid receptor; assay: Agonist activity at human delta opioid receptor expressed in HN9.10 cells assessed as stimulation of [35S]GTPgammaS binding relative to untreated basal control; assay type: functional, cell-based
Mu-type opioid receptor [7] = target: T2, Mu-type opioid receptor; assay: Agonist activity at rat mu opioid receptor expressed in HN9.10 cells assessed as stimulation of [35S]GTPgammaS binding; assay type: functional, cell-based
[8] = target: Mu-type opioid receptor (Rattus norvegicus) (UniProt P33535); assay: Agonist activity at rat mu opioid receptor expressed in HN9.10 cells assessed as stimulation of [35S]GTPgammaS binding relative to untreated basal control; assay type: functional, cell-based
Mu-type opioid receptor [9] = target: Mu-type opioid receptor (Cavia porcellus, UniProt P97266); assay: Agonist activity at mu opioid receptor in guinea pig ileum assessed as inhibition of electrically-stimulated contraction; assay type: functional, tissue-based
[10] = Half life in rat plasma at 37 degC; assay type: ADME, cell-free
[11] = target: Substance-P receptor (Cavia porcellus) (UniProt P30547); conditions: Ileum
Description: Antagonist activity at NK1 receptor in guinea pig ileum assessed as inhibition of substance P-induced muscle contraction in presence of naloxone

[12] = target: Mu-type opioid receptor (Cavia porcellus) (UniProt P97266); assay: Agonist activity at mu opioid receptor in guinea pig ileum assessed as inhibition of electrically-stimulated contraction at 1 uM; assay type: functional, tissue-based
[13] = target: Mu-type opioid receptor (Cavia porcellus) (UniProt P97266); assay: Antagonist activity at mu opioid receptor in guinea pig ileum assessed as effect on electrically-stimulated contraction at 1 uM; assay type: functional, tissue-based
[14] = target: Delta-type opioid receptor (Mus musculus, UniProt P32300); assay: Agonist activity at delta opioid receptor in mouse vas deferens assessed as inhibition of electrically-stimulated contraction; assay type: functional, tissue-based
[15] = Metabolic stability in rat plasma assessed as parent compound remaining at 37 degC after 24 hrs; assay type: ADME, cell-free; conditions: read-out: Stability

T1 sequence (P41143 whole entry): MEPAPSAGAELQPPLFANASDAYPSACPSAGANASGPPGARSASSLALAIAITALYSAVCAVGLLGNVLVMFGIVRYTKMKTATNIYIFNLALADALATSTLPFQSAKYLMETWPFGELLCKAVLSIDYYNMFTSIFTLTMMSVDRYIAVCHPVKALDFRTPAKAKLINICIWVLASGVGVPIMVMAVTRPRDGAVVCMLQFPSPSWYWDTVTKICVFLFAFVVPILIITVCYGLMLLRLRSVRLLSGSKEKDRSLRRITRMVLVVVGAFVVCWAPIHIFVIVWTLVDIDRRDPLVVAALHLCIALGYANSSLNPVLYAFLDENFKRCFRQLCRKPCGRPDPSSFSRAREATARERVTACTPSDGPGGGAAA
Chain of Substance-P receptor (Rattus norvegicus, UniProt P14600) (P14600 whole entry): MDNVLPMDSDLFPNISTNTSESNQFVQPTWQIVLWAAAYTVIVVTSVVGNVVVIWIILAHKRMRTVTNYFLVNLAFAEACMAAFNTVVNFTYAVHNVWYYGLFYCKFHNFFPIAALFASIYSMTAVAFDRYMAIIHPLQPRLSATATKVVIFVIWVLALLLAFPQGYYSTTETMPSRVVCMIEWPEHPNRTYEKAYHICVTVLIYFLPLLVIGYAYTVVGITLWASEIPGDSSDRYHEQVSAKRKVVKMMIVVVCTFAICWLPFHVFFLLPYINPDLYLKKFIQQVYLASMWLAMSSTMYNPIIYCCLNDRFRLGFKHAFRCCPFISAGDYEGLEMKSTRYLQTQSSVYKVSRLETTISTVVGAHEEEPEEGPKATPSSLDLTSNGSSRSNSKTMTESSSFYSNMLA
Chain of Mu-type opioid receptor (Cavia porcellus) (P97266 whole entry): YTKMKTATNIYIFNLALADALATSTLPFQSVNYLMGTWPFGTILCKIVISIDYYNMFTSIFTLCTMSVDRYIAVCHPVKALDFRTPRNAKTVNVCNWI
T2 sequence (P33535 whole entry): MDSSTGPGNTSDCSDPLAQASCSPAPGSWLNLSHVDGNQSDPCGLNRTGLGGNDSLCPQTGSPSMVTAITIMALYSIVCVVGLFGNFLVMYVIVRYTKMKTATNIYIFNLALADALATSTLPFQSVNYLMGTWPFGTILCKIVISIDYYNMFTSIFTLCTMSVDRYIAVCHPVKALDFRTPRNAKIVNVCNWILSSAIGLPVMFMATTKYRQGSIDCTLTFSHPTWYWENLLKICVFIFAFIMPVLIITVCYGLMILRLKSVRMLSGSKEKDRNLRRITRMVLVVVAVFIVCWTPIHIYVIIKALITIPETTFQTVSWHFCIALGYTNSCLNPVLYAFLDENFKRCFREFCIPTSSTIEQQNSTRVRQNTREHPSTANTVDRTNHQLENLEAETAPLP
Chain of Mu-type opioid receptor (Cavia porcellus, UniProt P97266) (P97266 whole entry): as the sequence (P97266 whole entry) above
Chain of Substance-P receptor (Cavia porcellus) (P30547 whole entry): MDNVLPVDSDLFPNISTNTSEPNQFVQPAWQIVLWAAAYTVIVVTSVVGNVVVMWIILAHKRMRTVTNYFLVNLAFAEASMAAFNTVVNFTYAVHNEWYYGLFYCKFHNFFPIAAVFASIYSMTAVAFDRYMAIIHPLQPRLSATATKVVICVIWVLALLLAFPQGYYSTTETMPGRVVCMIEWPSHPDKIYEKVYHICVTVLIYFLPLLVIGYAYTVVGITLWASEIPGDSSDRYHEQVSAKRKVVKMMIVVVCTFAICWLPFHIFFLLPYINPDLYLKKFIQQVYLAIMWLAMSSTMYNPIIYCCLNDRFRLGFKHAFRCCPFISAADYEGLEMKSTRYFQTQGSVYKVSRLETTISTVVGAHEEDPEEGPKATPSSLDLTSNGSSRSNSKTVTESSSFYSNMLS
Chain of Substance-P receptor (Homo sapiens, UniProt P25103) (P25103 whole entry): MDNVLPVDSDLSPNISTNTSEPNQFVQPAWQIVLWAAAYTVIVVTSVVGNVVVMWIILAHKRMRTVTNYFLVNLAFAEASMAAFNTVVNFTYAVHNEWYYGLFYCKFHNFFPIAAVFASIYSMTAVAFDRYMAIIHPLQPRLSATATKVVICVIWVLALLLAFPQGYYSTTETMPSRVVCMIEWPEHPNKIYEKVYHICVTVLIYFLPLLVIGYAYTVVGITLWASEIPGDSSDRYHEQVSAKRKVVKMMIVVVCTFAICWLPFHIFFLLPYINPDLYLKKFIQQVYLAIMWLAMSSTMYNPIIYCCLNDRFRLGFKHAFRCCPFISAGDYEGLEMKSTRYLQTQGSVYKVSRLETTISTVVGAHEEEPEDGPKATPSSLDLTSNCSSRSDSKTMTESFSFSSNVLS
Chain of Mu-type opioid receptor (Rattus norvegicus) (P33535 whole entry): as the sequence (P33535 whole entry) above
Chain of Delta-type opioid receptor (Mus musculus, UniProt P32300) (P32300 whole entry): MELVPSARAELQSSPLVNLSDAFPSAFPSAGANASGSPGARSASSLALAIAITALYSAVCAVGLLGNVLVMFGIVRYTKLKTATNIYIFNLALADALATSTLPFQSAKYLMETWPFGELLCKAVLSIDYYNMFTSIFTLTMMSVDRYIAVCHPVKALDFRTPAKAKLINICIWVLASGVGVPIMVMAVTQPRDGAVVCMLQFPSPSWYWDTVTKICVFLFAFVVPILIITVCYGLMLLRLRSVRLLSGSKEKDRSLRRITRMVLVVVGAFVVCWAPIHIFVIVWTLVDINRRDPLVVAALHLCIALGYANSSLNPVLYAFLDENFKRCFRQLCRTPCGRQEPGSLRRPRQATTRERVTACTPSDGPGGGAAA

Compound | IC50 [1] [nM] | IC50 (Mu-type opioid receptor [2]) [nM] | IC50 (Substance-P receptor [3]) [nM] | IC50 (Substance-P receptor [4]) [nM] | EC50 ([5]; read-out: pEC50 (converted)) [nM] | Emax [6] [%] | EC50 (Mu-type opioid receptor [7]) [nM] | Emax [8] [%] | IC50 (Mu-type opioid receptor [9]) [nM] | half-life [10] [h] | Ke [11] [nM] | inhibition [12] [%] | Activity [13] | IC50 [14] [nM] | EC50 ([5]; read-out: EC50) [nM] | remaining at 24 h [15] [%]
CCCC[C@@H]1NC(=O)[C@H](Cc2ccccc2)NC(=O)CNC(=O)[C@H](NC(=O)[C@@H](N)Cc2ccc(O)cc2)CSSC[C@@H](C(=O)N[C@@H](Cc2c[nH]c3ccccc23)C(=O)NCc2cc(C(F)(F)F)cc(C(F)(F)F)c2)NC(=O)[C@@H]2CCCN2C1=O (H-Y[dC]GF[Nle]PCW-{NH(3,5-(CF3)2-benzyl)}; disulfide 2-7) | 2.69 | 166 | 0.186 | 95.5 | 0.0174 | 11 | 36 | 36 | 1000 | > 6 | 2.2 | – | – | – | – | –
CC(C)C[C@H](NC(=O)[C@@H]1CCCN1C(=O)[C@@H]1CSSC[C@@H](NC(=O)[C@@H](N)Cc2ccc(O)cc2)C(=O)NCC(=O)N[C@@H](Cc2ccccc2)C(=O)N1)C(=O)N[C@@H](Cc1c[nH]c2ccccc12)C(=O)NCc1cc(C(F)(F)F)cc(C(F)(F)F)c1 | 22.4 | 427 | – | 1780 | – | – | – | – | – | – | – | 10 | Active | – | – | –
CSCC[C@H](NC(=O)[C@H](Cc1ccccc1)NC(=O)CNC(=O)[C@@H](C)NC(=O)[C@@H](N)Cc1ccc(O)cc1)C(N)=O | – | – | – | – | – | – | – | – | 45 | – | – | – | – | 36 | – | –
CCCC[C@@H]1NC(=O)[C@H](Cc2ccccc2)NC(=O)CNC(=O)[C@H](NC(=O)[C@@H](N)Cc2ccc(O)cc2)CSSC[C@H](C(=O)N[C@@H](Cc2c[nH]c3ccccc23)C(=O)NCc2cc(C(F)(F)F)cc(C(F)(F)F)c2)NC(=O)[C@@H]2CCCN2C1=O (H-Y[dC]GF[Nle]P[dC]W-{NH(3,5-(CF3)2-benzyl)}; disulfide 2-7) | 117 | 316 | 0.49 | 22.4 | – | 110 | 22 | 9 | – | > 6 | 12 | 3 | Active | – | 13 | 70
CC(C)C[C@H](NC(=O)[C@@H]1CCCN1C(=O)[C@H]1CSSC[C@@H](NC(=O)[C@@H](N)Cc2ccc(O)cc2)C(=O)NCC(=O)N[C@@H](Cc2ccccc2)C(=O)N1)C(=O)N[C@@H](Cc1c[nH]c2ccccc12)C(=O)NCc1cc(C(F)(F)F)cc(C(F)(F)F)c1 | 15.5 | 115 | – | 138 | – | – | – | – | – | – | – | – | – | – | – | –
